Data reported in patent US8486464B2, “Herbal composition for angina pectoris, method to prepare same and uses thereof” (Tasly Pharmaceutical Group Co. Ltd., priority 2000, dated 2013).

Assays:
myocardial infarction = assay: Dog myocardial infarction area (N-BT); type: in vivo; details: dogs; Dan Shen Pill 2 g/kg, Ditiazem 5 mg/kg
Procedure: (§1) 1.1 Experimental Groups. (1) Blank control group, normal saline 3 ml/kg; (2) DSP group, 2 g natural drug/kg; (3) positive control group, Ditiazem, 5 mg/kg. All the above samples are diluted with normal saline to the same volume of 3 ml/kg and were given to the patient through the duodenum.
The hearts were removed 180 mins after treatment and weighed, cut into slices, and colored with N-BT. The infarction area of each slice (N-BT-uncolorized area) and non-infarction area (N-BT colorized area) were measured. The percentage occupied by the infarction area in the ventricles was calculated and the whole heart was weighted.
(§2) The significance of the experimental results was tested by the t-testing method.

[1] = test system: venous blood oxygen content; assay: Dog coronary venous blood oxygen content; type: in vivo; details: dogs, Dan Shen Pill 2 g/kg, Ditiazem 5 mg/kg
Procedure: as §1
(§3) 1.2 Experimental Method. The dogs are anesthetized with pentobarbital sodium. Chests were opened and coronary arterioles and the central part of the dorsal lower branch separated and tied to create an acute myocardial ischemia model. ECGs were recorded and the level of myocardial ischemia (increased section ST, ST) and area of myocardial ischemia (the total increased decimal places in section ST) were calculated. The oxygen content in the coronary artery was recorded. Blood serum creatine kinase (CK), lactate dehydrogenase (LDH), ET, TXB2 and 6-Keto-PGF1 were measured. The oxygen content of the aorta and coronary vein, and blood flow volume in the coronary arteries were measured to calculate myocardial oxygen consumption. Blood oxygen content in the coronary vein was measured to calculate myocardial oxygen content (myocardial oxygen content=(blood oxygen content in arteries-blood oxygen content in coronary veins)×blood flow volume in coronary artery/100).

SOD, MDA = assay: Rat M-IR damage: SOD activity and MDA content in blood serum; type: in vivo; details: Wistar, 2 hrs after duodenal dosing, DSP 3.0 g/kg, Ditiazem 30 mg/kg
Procedure: (1) Experimental Groups. Control group (Serum taken as normal control), Model group (Normal Saline), Ditiazem group (30 mg/kg), DSP 6.0, 3.0 g/kg group. Each group was diluted to its necessary concentration with 3 ml/kg normal saline through the duodenum.
(2) Experimental Method. Wistar animal is anesthetized by pentobarbital sodium and fixed. Chests and cardial membranes are opened to expose the heart. A hole in the left lower dorsal part of the coronary artery is left for tying. Separate the duodenum, and infuse the tested drugs into it. Take blood from the abdomen after 2 hrs and test the MDA and SOD content in the blood serum.

myocardial ischemia = assay: Dog acute myocardial ischemia: level and area by ECG (Σ-ST, N-ST); type: in vivo; details: dogs, Dan Shen Pill 2 g/kg, Ditiazem 5 mg/kg
Procedure: as §1, §3, §2

ET, TXB2, 6-Keto-PGF1α = assay: Dog plasma ET, TXB2, 6-Keto-PGF1α; type: in vivo; design: 6-Keto-PGF1α: unit not given beside the values; details: dogs, Dan Shen Pill 2 g/kg, Diltiazem 5 mg/kg
Procedure: as §1, §3

non-symptomatic M-IR = assay: Non-symptomatic M-IR, DSP vs Nifedipine; type: in vivo, human; details: for Efficacy (Number) / Obvious Efficacy (Number): n = 52
Source text: 1. Clinical sample. 52 patients were in the treatment group, which included 39 patients with coronary heart disease, and 4 patients with M-IR, and 9 patients with positive results on the exercise test. There were 38 males and 14 females. 52 patients were in the control group, which included 43 patients with coronary heart disease, 6 patients with M-IR, and 3 patients with positive results on the exercise test. There were 34 males and 18 females (Both groups followed the WHO M-IR-Related Heart Disease and Standard established in 1979).
2. Method of treatment. DSP was given to the treatment group, 10 tablets/medication, 3 times/day. […] Both medications lasted for 4 weeks, and all medications related to the treatment of M-IR were stopped.
3. Result standard. Efficient: Change of ECG ST-T was close to normal; Better: Decreased section ST rose 0.5 mm or more, transverse wave T changed to vertical ones, inverted wave changed 25% or more, conducting resistance was improved; Failure: There was no difference in ECGs before and after treatment.

[2] = test system: angina caused by coronary heart disease; assay: Senior group angina, DSP vs Nifedipine
Procedure: • 1.1 Subjects. […] Medications were taken for 30 days. Patients in both groups used Yongbaoling spray under their tongues during acute onset of symptoms. […] Onset frequency, duration, number of times Yongbaoling was sprayed each day, 12-lead ECG, blood pressure, heartbeat, normal blood urea, liver and kidneys function, and lipoproteins in blood and blood viscosity both before and after treatment. • 1.4 Statistical analysis. The results were measured by t statistic testing, calculated by x^2 statistic testing. • 2. Confirmation of results. Onset frequency and duration with a decrease of 80% or more was regarded as obvious efficacy. A decrease of 50% or more was regarded as efficacy. A decrease of 50% or less was regarded as a failure. Changes in NST and ΣST before and after treatment were used to observe ECG improvement. NST represented the low-pressure 12-lead numbers in section ST; ΣST represented the sum of all low pressure numbers in section ST of 12-lead. Results

[3] = test system: coronary heart disease and angina; assay: Clinical summary: coronary heart disease and angina (Table 1-1); type: in vivo, human; details: Affiliated Hospital Anhui College of TCM, 46 cases
Procedure: After DSP came onto the market in China, a large-scale clinical research project was conducted in China. Although different prescriptions were used in different research projects, all conclusions are written according to “Method of DSP clinic study.” All clinical and experimental markers were standardized. A simplified summary of the results is shown below in Table 1-1.

[4] = clinical results after 30 days, cases (%)

## COc1ccc([C@@H]2Sc3ccccc3N(CCN(C)C)C(=O)[C@@H]2OC(C)=O)cc1 [Ditiazem]
Myocardial infarction
  Area of Cardiac Chamber: 5377.8 ± 411.2 mm2
  Area of Infarction: 378.98 ± 138.41 mm2
  Infarction Location/Cardiac Chamber: 7.22 ± 2.87
  Infarction Location/Heart: 2.52 ± 1.35
  Myocardial area: 14096.5 ± 3056.4 mm2
[1]; 30 min after dosage
  VO2, changing percentage (before dosage = 100%): 97.70 ± 10.36%
  venous oxygen volume (VO2): 16.08 ± 1.13 ml %
[1]; 60 min after dosage
  VO2, changing percentage (before dosage = 100%): 95.95 ± 8.27%
  venous oxygen volume (VO2): 15.84 ± 1.43 ml %
[1]; 90 min after dosage
  VO2, changing percentage (before dosage = 100%): 96.37 ± 5.54%
  venous oxygen volume (VO2): 15.92 ± 1.29 ml %
[1]; 120 min after dosage
  VO2, changing percentage (before dosage = 100%): 92.15 ± 9.42%
  venous oxygen volume (VO2): 15.20 ± 1.50 ml %
[1]; 180 min after dosage
  VO2, changing percentage (before dosage = 100%): 89.62 ± 11.94%
  venous oxygen volume (VO2): 14.82 ± 2.28 ml %
[1]; after hypoxia (value before dosage)
  venous oxygen volume (VO2): 16.56 ± 1.61 ml %
[1]; after hypoxia, before dosage
  VO2, changing percentage: 111.45 ± 33.86%
[1]; before hypoxia (normal value)
  venous oxygen volume (VO2): 15.44 ± 2.42 ml %
SOD, MDA
  MDA, blood serum: 5.29 ± 1.07 (μ mol/L) × 10^−3
  SOD, blood serum: 817.6 ± 115.6 U/ml
Myocardial ischemia; 15 min after dosage
  N-ST: 29.80
  N-ST, changing in percentage (before dosage = 100%): 99.33%
  Σ-ST: 277.80
  Σ-ST, changing in percentage (before dosage = 100%): 91.83%
Myocardial ischemia; 30 min after dosage
  N-ST: 29.60
  N-ST, changing in percentage (before dosage = 100%): 98.67%
  Σ-ST: 226.20
  Σ-ST, changing in percentage (before dosage = 100%): 74.87%
Myocardial ischemia; 45 min after dosage
  N-ST: 29.20
  N-ST, changing in percentage (before dosage = 100%): 97.33%
  Σ-ST: 213.40
  Σ-ST, changing in percentage (before dosage = 100%): 70.59%
Myocardial ischemia; 60 min after dosage
  N-ST: 28.40
  N-ST, changing in percentage (before dosage = 100%): 94.67%
  Σ-ST: 186.20
  Σ-ST, changing in percentage (before dosage = 100%): 61.61%
Myocardial ischemia; 90 min after dosage
  N-ST: 27.00
  N-ST, changing in percentage (before dosage = 100%): 90.00%
  Σ-ST: 175.20
  Σ-ST, changing in percentage (before dosage = 100%): 57.95%
Myocardial ischemia; 120 min after dosage
  N-ST: 26.80
  N-ST, changing in percentage (before dosage = 100%): 89.33%
  Σ-ST: 468.00
  Σ-ST, changing in percentage (before dosage = 100%): 55.60%
Myocardial ischemia; 180 min after dosage
  N-ST: 25.20
  N-ST, changing in percentage (before dosage = 100%): 84.00%
  Σ-ST: 122.80
  Σ-ST, changing in percentage (before dosage = 100%): 40.63%
Myocardial ischemia; before dosage
  N-ST: 30.00
  Σ-ST: 302.80
ET, TXB2, 6-Keto-PGF1α; 30 min after dosage
  6-Keto-PGF1α: 1749.4 ± 278.3
  6-Keto-PGF1α, changing in percentage (before dosage = 100%): 118.95 ± 14.47 %
  ET, changing in percentage (before dosage = 100%): 85.14 ± 13.98 %
  TXB2, changing in percentage (before dosage = 100%): 101.14 ± 17.90 %
  blood plasma ET: 47.51 ± 7.39 pg/mL
  blood plasma TXB2: 143.40 ± 28.64 pg/mL
ET, TXB2, 6-Keto-PGF1α; 60 min after dosage
  6-Keto-PGF1α: 1902.6 ± 155.1
  6-Keto-PGF1α, changing in percentage (before dosage = 100%): 131.19 ± 16.98 %
  ET, changing in percentage (before dosage = 100%): 84.06 ± 18.24 %
  TXB2, changing in percentage (before dosage = 100%): 92.58 ± 15.17 %
  blood plasma ET: 46.38 ± 9.02 pg/mL
  blood plasma TXB2: 134.40 ± 46.48 pg/mL
ET, TXB2, 6-Keto-PGF1α; 90 min after dosage
  6-Keto-PGF1α: 1912.4 ± 258.5
  6-Keto-PGF1α, changing in percentage (before dosage = 100%): 132.75 ± 28.52 %
  ET, changing in percentage (before dosage = 100%): 71.69 ± 12.10 %
  TXB2, changing in percentage (before dosage = 100%): 69.72 ± 8.76 %
  blood plasma ET: 39.97 ± 7.95 pg/mL
  blood plasma TXB2: 1093.4 ± 320.9 pg/mL
ET, TXB2, 6-Keto-PGF1α; 120 min after dosage
  6-Keto-PGF1α: 1982.8 ± 574.2
  6-Keto-PGF1α, changing in percentage (before dosage = 100%): 139.39 ± 56.36 %
  ET, changing in percentage (before dosage = 100%): 74.30 ± 17.04 %
  TXB2, changing in percentage (before dosage = 100%): 63.03 ± 14.20 %
  blood plasma ET: 41.42 ± 15.69 pg/mL
  blood plasma TXB2: 1284.1 ± 695.0 pg/mL
ET, TXB2, 6-Keto-PGF1α; 180 min after dosage
  6-Keto-PGF1α: 1705.2 ± 412.2
  6-Keto-PGF1α, changing in percentage (before dosage = 100%): 119.08 ± 39.78%
  ET, changing in percentage (before dosage = 100%): 82.16 ± 14.09 %
  TXB2, changing in percentage (before dosage = 100%): 62.77 ± 14.51 %
  blood plasma ET: 45.74 ± 9.40 pg/mL
  blood plasma TXB2: 1032.7 ± 343.1 pg/mL
ET, TXB2, 6-Keto-PGF1α; after hypoxia before dosage
  6-Keto-PGF1α: 1478.8 ± 218.6
  6-Keto-PGF1α, changing in percentage: 92.3 ± 5.53%
  ET, changing in percentage: 178.30 ± 57.33%
  TXB2, changing in percentage: 101.14 ± 19.90 %
  blood plasma ET: 55.51 ± 3.59 pg/mL
  blood plasma TXB2: 143.40 ± 28.64 pg/mL
ET, TXB2, 6-Keto-PGF1α; before hypoxia (normal value)
  6-Keto-PGF1α: 1597.4 ± 185.3
ET, TXB2, 6-Keto-PGF1α; before hypoxia (normal)
  blood plasma ET: 34.41 ± 9.41 pg/mL
  blood plasma TXB2: 106.40 ± 19.12 pg/mL

## COC(=O)C1=C(C)NC(C)=C(C(=O)OC)C1c1ccccc1[N+](=O)[O-] [Nifedipine]
non-symptomatic M-IR; 1st week
  Efficacy (%): 25.0%
  Efficacy (Number): 5
  Obvious Efficacy (Number): 8
non-symptomatic M-IR; 2nd week
  Efficacy (%): 30.8%
  Efficacy (Number): 6
  Obvious Efficacy (Number): 10
non-symptomatic M-IR; 3rd week
  Efficacy (%): 34.6%
  Efficacy (Number): 7
  Obvious Efficacy (Number): 11
non-symptomatic M-IR; 4th week
  Efficacy (%): 38.5%
  Efficacy (Number): 8
  Obvious Efficacy (Number): 12
[2]; 20 patients, 30 days
  Side-effects: felt pain: 3 patients
  Side-effects: slow heartbeat: 1 patients
  Side-effects: swollen ankles: 2 patients
[2]; after treatment
  NST: 3.90 ± 1.13
  Number of Yongbaoling sprays per day: 2.2 ± 0.8
[2]; before treatment
  NST: 4.20 ± 1.25
  Number of Yongbaoling sprays per day: 3.21 ± 1.1
[2]; clinical results after 30 days
  Total efficacy, %: 60%
[2]; [4]
  Efficacy: 4 (20.00) %
  Failure: 8 (40.00) %
  Obvious Efficacy: 8 (40.00) %
[3]
  Clinical efficacy %: Nifedipine(32; 75%;
  ECG-Efficacy %: 43.8%)
